Experimental data taken from US9156796B2, “Benzoimidazole-carboxylic acid amide derivatives as APJ receptor modulators” (SANOFI, priority 2013, dated 2015).

Biological target: T1, human apelin receptor (Homo sapiens, UniProt P35414)
T1 construct: expressed in transfected cells
T1 sequence (P35414 1-380): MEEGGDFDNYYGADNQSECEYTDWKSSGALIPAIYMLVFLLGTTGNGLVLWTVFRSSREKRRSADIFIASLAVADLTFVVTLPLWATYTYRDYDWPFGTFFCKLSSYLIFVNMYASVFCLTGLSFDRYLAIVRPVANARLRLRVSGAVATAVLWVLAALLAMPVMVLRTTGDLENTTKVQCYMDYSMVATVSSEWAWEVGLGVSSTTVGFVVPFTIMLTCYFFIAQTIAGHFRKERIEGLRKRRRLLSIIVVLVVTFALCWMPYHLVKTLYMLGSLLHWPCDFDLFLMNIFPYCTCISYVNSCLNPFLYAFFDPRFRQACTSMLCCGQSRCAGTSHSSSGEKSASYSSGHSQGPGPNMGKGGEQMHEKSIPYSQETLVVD
Assay: Determination of agonism on the human apelin receptor by a calcium fluorescence assay (FLIPR)
Assay type: cell-based
Settings: HEK293 cells stably transfected with human apelin receptor and Giaq protein, Fluo-4 calcium fluorescence, read-out: EC50 (APJ agonism)
Outline: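 HEK293 cells stably co-expressing human apelin receptor and promiscuous Giaq, loaded 1 h at 37 °C with Fluo-4 (4 μM) in probenecid-containing Hepes buffer, pH 7.4. Compounds, at least 7 concentrations in triplicate, added in FLIPR Tetra; peak calcium fluorescence normalized to 1 μM apelin-13 as 100% to derive EC50.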

EC50 [nM] | SMILES
1520 | CCC(CC)n1c(Cc2cccs2)nc2cc(C(=O)N[C@@H](CC(C)C)C(=O)NCC3CN(CC(C)C)CCO3)ccc21 (stereo partly drawn) [Example 355, 1-(1-Ethyl-propyl)-2-thiophen-2-ylmethyl-1H-benzoimidazole-5-carboxylic acid {(S)-1-[(4-isobutyl-morpholin-2-ylmethyl)-carbamoyl]-3-methyl-butyl}-amide]
4260 | CCC(CC)n1c(Cc2cccs2)nc2cc(C(=O)N[C@@H](CC(C)C)C(=O)NCC3CN(Cc4ccc(F)cc4)CCO3)ccc21 (stereo partly drawn) [Example 356, 1-(1-Ethyl-propyl)-2-thiophen-2-ylmethyl-1H-benzoimidazole-5-carboxylic acid ((S)-1-{[4-(4-fluoro-benzyl)-morpholin-2-ylmethyl]-carbamoyl}-3-methyl-butyl)-amide]
389 | CCC(CC)n1c(Cc2cccs2)nc2cc(C(=O)N[C@@H](CC(C)C)C(=O)N(C)C)ccc21 [Example 357, 1-(1-Ethyl-propyl)-2-thiophen-2-ylmethyl-1H-benzoimidazole-5-carboxylic acid ((S)-1-dimethyl-carbamoyl-3-methyl-butyl)-amide]
2570 | CCC(CC)n1c(Cc2cccs2)nc2cc(C(=O)N[C@@H](CC(C)C)C(=O)NCCCOC(C)C)ccc21 [Example 358, 1-(1-Ethyl-propyl)-2-thiophen-2-ylmethyl-1H-benzoimidazole-5-carboxylic acid [(S)-1-(3-isopropoxy-propylcarbamoyl)-3-methyl-butyl]-amide]
2140 | CCOCCCNC(=O)[C@H](CC(C)C)NC(=O)c1ccc2c(c1)nc(Cc1cccs1)n2C(CC)CC [Example 359, 1-(1-Ethyl-propyl)-2-thiophen-2-ylmethyl-1H-benzoimidazole-5-carboxylic acid [(S)-1-(3-ethoxy-propylcarbamoyl)-3-methyl-butyl]-amide]
21200 | CCC(CC)n1c(Cc2cccs2)nc2cc(C(=O)N[C@@H](CC(C)C)C(=O)NCCc3cccc(OC)c3)ccc21 [Example 360, 1-(1-Ethyl-propyl)-2-thiophen-2-ylmethyl-1H-benzoimidazole-5-carboxylic acid {(S)-1-[2-(3-methoxy-phenyl)-ethylcarbamoyl]-3-methyl-butyl}-amide]
25000 | CCC(CC)n1c(Cc2cccs2)nc2cc(C(=O)N[C@@H](CC(C)C)C(=O)NCCc3ccc(OC)cc3)ccc21 [Example 361, 1-(1-Ethyl-propyl)-2-thiophen-2-ylmethyl-1H-benzoimidazole-5-carboxylic acid {(S)-1-[2-(4-methoxy-phenyl)-ethylcarbamoyl]-3-methyl-butyl}-amide]
27100 | CCC(CC)n1c(Cc2cccs2)nc2cc(C(=O)N[C@@H](CC(C)C)C(=O)NCCc3ccccc3OC)ccc21 [Example 362, 1-(1-Ethyl-propyl)-2-thiophen-2-ylmethyl-1H-benzoimidazole-5-carboxylic acid {(S)-1-[2-(2-methoxy-phenyl)-ethylcarbamoyl]-3-methyl-butyl}-amide]
1720 | CCC(CC)n1c(Cc2cccs2)nc2cc(C(=O)N[C@@H](CC(C)C)C(=O)N(CCOC)CCOC)ccc21 [Example 363, 1-(1-Ethyl-propyl)-2-thiophen-2-ylmethyl-1H-benzoimidazole-5-carboxylic acid {(S)-1-[bis-(2-methoxy-ethyl)-carbamoyl]-3-methyl-butyl}-amide]
13500 | CCC(CC)n1c(Cc2cccs2)nc2cc(C(=O)N[C@@H](CC(C)C)C(=O)NCc3cccc(OC)c3)ccc21 [Example 364, 1-(1-Ethyl-propyl)-2-thiophen-2-ylmethyl-1H-benzoimidazole-5-carboxylic acid [(S)-1-(3-methoxy-benzylcarbamoyl)-3-methyl-butyl]-amide]
2750 | CCC(CC)n1c(Cc2cccs2)nc2cc(C(=O)N[C@@H](CC(C)C)C(=O)N3CCC[C@@H]3COC)ccc21 [Example 365, 1-(1-Ethyl-propyl)-2-thiophen-2-ylmethyl-1H-benzoimidazole-5-carboxylic acid [(S)-1-((R)-2-methoxymethyl-pyrrolidine-1-carbonyl)-3-methyl-butyl]-amide]
16500 | CCC(CC)n1c(Cc2cccs2)nc2cc(C(=O)N[C@@H](CC(C)C)C(=O)NCCOc3ccccc3)ccc21 [Example 366, 1-(1-Ethyl-propyl)-2-thiophen-2-ylmethyl-1H-benzoimidazole-5-carboxylic acid [(S)-3-methyl-1-(2-phenoxy-ethylcarbamoyl)-butyl]-amide]
1660 | CCC(CC)n1c(Cc2cccs2)nc2cc(C(=O)N[C@@H](CC(C)C)C(=O)NC[C@H]3CCCO3)ccc21 [Example 367, 1-(1-Ethyl-propyl)-2-thiophen-2-ylmethyl-1H-benzoimidazole-5-carboxylic acid ((S)-3-methyl-1-{[(R)-1-(tetrahydro-furan-2-yl)methyl]-carbamoyl}-butyl)-amide]
1880 | CCC(CC)n1c(Cc2cccs2)nc2cc(C(=O)N[C@@H](CC(C)C)C(=O)NC[C@@H]3CCCO3)ccc21 [Example 368, 1-(1-Ethyl-propyl)-2-thiophen-2-ylmethyl-1H-benzoimidazole-5-carboxylic acid ((S)-3-methyl-1-{[(S)-1-(tetrahydro-furan-2-yl)methyl]-carbamoyl}-butyl)-amide]
2210 | CCC(CC)n1c(Cc2cccs2)nc2cc(C(=O)N[C@@H](CC(C)C)C(=O)NCC3CCOCC3)ccc21 [Example 369, 1-(1-Ethyl-propyl)-2-thiophen-2-ylmethyl-1H-benzoimidazole-5-carboxylic acid {(S)-3-methyl-1-[(tetrahydro-pyran-4-ylmethyl)-carbamoyl]-butyl}-amide]
2850 | CCC(CC)n1c(Cc2cccs2)nc2cc(C(=O)N[C@@H](CC(C)C)C(=O)N[C@@H](C)COC)ccc21 [Example 370, 1-(1-Ethyl-propyl)-2-thiophen-2-ylmethyl-1H-benzoimidazole-5-carboxylic acid [(S)-1-((S)-2-methoxy-1-methyl-ethylcarbamoyl)-3-methyl-butyl]-amide]
3570 | CCC(CC)n1c(Cc2cccs2)nc2cc(C(=O)N[C@@H](CC(C)C)C(=O)NCCOC(C)C)ccc21 [Example 371, 1-(1-Ethyl-propyl)-2-thiophen-2-ylmethyl-1H-benzoimidazole-5-carboxylic acid [(S)-1-(2-isopropoxy-ethylcarbamoyl)-3-methyl-butyl]-amide]
13200 | CCC(CC)n1c(Cc2cccs2)nc2cc(C(=O)N[C@@H](CC(C)C)C(=O)N(C)Cc3ccc(OC)cc3)ccc21 [Example 372, 1-(1-Ethyl-propyl)-2-thiophen-2-ylmethyl-1H-benzoimidazole-5-carboxylic acid {(S)-1-[(4-methoxy-benzyl)-methyl-carbamoyl]-3-methyl-butyl}-amide]
1840 | CCC(CC)n1c(Cc2cccs2)nc2cc(C(=O)N[C@@H](CC(C)C)C(=O)N3CCC(OC)CC3)ccc21 [Example 373, 1-(1-Ethyl-propyl)-2-thiophen-2-ylmethyl-1H-benzoimidazole-5-carboxylic acid [(S)-1-(4-methoxy-piperidine-1-carbonyl)-3-methyl-butyl]-amide]
2180 | CCC(CC)n1c(Cc2cccs2)nc2cc(C(=O)N[C@@H](CC(C)C)C(=O)N3CCC(COC)CC3)ccc21 [Example 374, 1-(1-Ethyl-propyl)-2-thiophen-2-ylmethyl-1H-benzoimidazole-5-carboxylic acid [(S)-1-(4-methoxymethyl-piperidine-1-carbonyl)-3-methyl-butyl]-amide]
2880 | CCC(CC)n1c(Cc2cccs2)nc2cc(C(=O)N[C@@H](CC(C)C)C(=O)N3CCC(OC(C)C)CC3)ccc21 [Example 375, 1-(1-Ethyl-propyl)-2-thiophen-2-ylmethyl-1H-benzoimidazole-5-carboxylic acid [(S)-1-(4-isopropoxy-piperidine-1-carbonyl)-3-methyl-butyl]-amide]
1830 | CCC(CC)n1c(Cc2cccs2)nc2cc(C(=O)N[C@@H](CC(C)C)C(=O)N3CCCC(OC)C3)ccc21 (stereo partly drawn) [Example 376, 1-(1-Ethyl-propyl)-2-thiophen-2-ylmethyl-1H-benzoimidazole-5-carboxylic acid [(S)-1-(3-methoxy-piperidine-1-carbonyl)-3-methyl-butyl]-amide]
1140 | CCC(CC)n1c(Cc2cccs2)nc2cc(C(=O)N[C@@H](CC(C)C)C(=O)N(C)C3CCOCC3)ccc21 [Example 377, 1-(1-Ethyl-propyl)-2-thiophen-2-ylmethyl-1H-benzoimidazole-5-carboxylic acid {(S)-3-methyl-1-[methyl-(tetrahydro-pyran-4-yl)-carbamoyl]-butyl}-amide]
2440 | CCC(CC)n1c(Cc2cccs2)nc2cc(C(=O)N[C@@H](CC(C)C)C(=O)N3CCCC(COC)C3)ccc21 (stereo partly drawn) [Example 378, 1-(1-Ethyl-propyl)-2-thiophen-2-ylmethyl-1H-benzoimidazole-5-carboxylic acid [(S)-1-(3-methoxymethyl-piperidine-1-carbonyl)-3-methyl-butyl]-amide]
1800 | CCC(CC)n1c(Cc2cccs2)nc2cc(C(=O)N[C@@H](CC(C)C)C(=O)N3CCCC3)ccc21 [Example 379, 1-(1-Ethyl-propyl)-2-thiophen-2-ylmethyl-1H-benzoimidazole-5-carboxylic acid [(S)-3-methyl-1-(pyrrolidine-1-carbonyl)-butyl]-amide]
